Test system: J774.2 macrophages
Assay: Cellular uptake and localization of ApoA1-Ac2-26 PA
Type: cell-based, mouse
Procedure: Cellular uptake and localization of ApoA1-Ac2-26 PA: PAs containing 40 mol % ApoA1 PA, 10 mol % MMP-Ac2-26 or ROS-Ac2-26 PA, 45.5 mol % E2 filler PA, and 4.5 mol % E2 filler PA with AF546 were co-assembled as described above and aged at least 1 week in PBS at 4° C. to promote nanofiber formation. Macrophages were seeded onto 6-channel μ-Slide VI 0.4 (ibidi) at 2.1×10^5 cells/cm^2 and allowed to adhere for 24 hours before adding 0.33 μM 10% MMP- or ROS-Ac2-26 PA and incubated at 37° C. for 1 or 24 hours. At each time point, the samples were fixed with 4% paraformaldehyde for 10 minutes, followed by permeabilization with 0.125% Triton-X for 10 minutes. The samples were rinsed twice with PBS and incubated with blocking buffer consisting of 2% w/v BSA for one hour at room temperature before incubating with 20 μg/mL LAMP1 antibody (rabbit polyclonal, abcam) for 12-18 hours at 4° C. The samples were rinsed twice with PBS containing 0.01% Tween-20 at one hour per rinse followed by an hour rinse with PBS before adding 2 μg/mL donkey anti-rabbit Alexa Fluor Plus 647 (Highly cross-adsorbed secondary antibody, Invitrogen) for 12-18 hours at 4° C. The samples were rinsed twice with PBS before adding 5 μg/mL 4′,6-Diamidino-2-Phenylindole (DAPI, ThermoFisher Scientific) and phalloidin (1:1000 dilution, CruzFluor™ 488 conjugate, Santa Cruz Biotechnology) for one hour at room temperature. Samples were rinsed and stored in PBS until image analysis. Microscopy was performed using Zeiss 880 confocal microscopy at 63× magnification with numerical aperture of 1.4. Lasers at 405, 488, 561, and 633 nm were used to collect images through Multi Channel acquisition, which uses a separate scan for each channel to avoid spectral overlap. 3D images were created using z-stacks with 9-14 μm thick sections compiled from 0.22 μm slices using a line step of 1, speed of 8, and image size of 1024×1024 pixels at 16 bit depth. To examine colocalization of PAs to endosomes/lysosomes, Manders coefficient calculations using the Coloc 2 plugin from Fiji were used.

## 10% MMP-Ac2-26 PA: co-assembly of 10 mol % MMP-Ac2-26 PA, 50 mol % E2 filler PA, and 40% ApoA1 PA (VVAAEEGGGPQGIWGQGKAMVSEFLKQAWFIENEEQEYVQTVK)
24 hours of treatment
  average Manders coefficient, LAMP1 to PA colocalization: 0.79
  average Manders coefficient, PA to LAMP1 colocalization: 0.48
Confocal microscopy
  cellular retention of PAs: found in the extracellular space

— patent US12214076B2, “Drug delivery vehicles for atherosclerosis nanomedicine” (Northwestern University, priority 2019, dated 2025)
